# In the supplement of paper PMC4862054:
# Tests used:
# Conditions in all cases: incubation time: 72 h
# [1] = tested on: DU-4475; experiment: normalised response (% of control), CellTox Green; higher = less cell death (100 = DMSO, 0 = benzethonium chloride kill control)
# How it was run: (§1)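 CellTox Green fluorescence (485/520 nm) and, after 10 min at room temperature, CellTiter-Glo luminescence were read from breast cancer cell lines incubated 72 h in 384-well plates. Cells were seeded as 20 µl suspension onto compound at 5 concentrations in 10-fold steps over a 10,000-fold range chosen per compound. Each plate was normalised to 0.1 % DMSO (100) and a positive kill control (0). Values are normalised signals, one per concentration.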
# [2] = tested on: MFM-223; experiment: as above
# How it was run: as §1
# [3] = tested on: HCC1937; experiment: as above
# How it was run: as §1
# [4] = tested on: MDA-MB-453; experiment: as above
# How it was run: as §1
# [5] = tested on: CAL-120; experiment: as above
# How it was run: as §1
# [6] = tested on: HCC1599; experiment: as above
# How it was run: as §1
# [7] = tested on: CAL-85-1; experiment: as above
# How it was run: as §1
# [8] = tested on: MCF-10A; experiment: as above
# How it was run: as §1
# [9] = tested on: HDQ-P1; experiment: as above
# How it was run: as §1
# [10] = tested on: CAL-148; experiment: as above
# How it was run: as §1
# [11] = tested on: BT-474; experiment: as above
# How it was run: as §1
# [12] = tested on: CAL-51; experiment: as above
# How it was run: as §1
# [13] = tested on: BT-549; experiment: as above
# How it was run: as §1
# [14] = tested on: HCC1143; experiment: as above
# How it was run: as §1
# [15] = tested on: Hs578T; experiment: as above
# How it was run: as §1
# [16] = tested on: DU-4475; experiment: normalised response (% of control), CellTiter-Glo; higher = more viable cells (100 = DMSO, 0 = benzethonium chloride kill control)
# Experimental: (§2)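 DSRT, 72 h incubation, CellTox Green / CellTiter-Glo readout. Signal is normalised to DMSO and benzethonium chloride controls. Value is the normalised response at dose 3.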
# [17] = tested on: MFM-223; experiment: as above
# Experimental: as §2
# [18] = tested on: MDA-MB-468; experiment: as above
# Experimental: as §2
# [19] = tested on: HCC1937; experiment: as above
# Experimental: as §2
# [20] = tested on: MDA-MB-453; experiment: as above
# Experimental: as §2
# [21] = tested on: CAL-120; experiment: as above
# Experimental: as §2
# [22] = tested on: MDA-MB-436; experiment: as above
# Experimental: as §2
# [23] = tested on: HCC1599; experiment: as above
# Experimental: as §2
# [24] = tested on: CAL-85-1; experiment: as above
# Experimental: as §2
# [25] = tested on: MCF-10A; experiment: as above
# Experimental: as §2
# [26] = tested on: SK-BR-3; experiment: as above
# Experimental: as §2
# [27] = tested on: HDQ-P1; experiment: as above
# Experimental: as §2
# [28] = tested on: MDA-MB-231; experiment: as above
# Experimental: as §2
# [29] = tested on: CAL-148; experiment: as above
# Experimental: as §2
# [30] = tested on: BT-474; experiment: as above
# Experimental: as §2
# [31] = tested on: CAL-51; experiment: as above
# Experimental: as §2
# [32] = tested on: BT-549; experiment: as above
# Experimental: as §2
# [33] = tested on: HCC1143; experiment: as above
# Experimental: as §2
# [34] = tested on: Hs578T; experiment: as above
# Experimental: as §2
# [35] = tested on: MDA-MB-468; experiment: normalised response (% of control), CellTox Green; higher = less cell death (100 = DMSO, 0 = benzethonium chloride kill control)
# How it was run: as §1
# [36] = tested on: MDA-MB-436; experiment: as above
# How it was run: as §1
# [37] = tested on: MDA-MB-231; experiment: as above
# How it was run: as §1
SMILES,normalised response [1] [%],normalised response [2] [%],normalised response [3] [%],normalised response [4] [%],normalised response [5] [%],normalised response [6] [%],normalised response [7] [%],normalised response [8] [%],normalised response [9] [%],normalised response [10] [%],normalised response [11] [%],normalised response [12] [%],normalised response [13] [%],normalised response [14] [%],normalised response [15] [%],normalised response [16] [%],normalised response [17] [%],normalised response [18] [%],normalised response [19] [%],normalised response [20] [%],normalised response [21] [%],normalised response [22] [%],normalised response [23] [%],normalised response [24] [%],normalised response [25] [%],normalised response [26] [%],normalised response [27] [%],normalised response [28] [%],normalised response [29] [%],normalised response [30] [%],normalised response [31] [%],normalised response [32] [%],normalised response [33] [%],normalised response [34] [%],normalised response [35] [%],normalised response [36] [%],normalised response [37] [%]
COc1cc(F)c(F)c(Nc2ccc(I)cc2F)c1NS(=O)(=O)C1(C[C@H](O)CO)CC1 [Refametinib] (100 nM),84,97.7,92.5,101,92.4,93.7,86.7,93.4,81.3,58.6,97.4,79.7,102,95.8,103,35.1,88.9,82.2,88,97.6,87.7,91.6,99.6,89.7,37.9,90.6,68.6,83.6,87.2,81,88.3,105,89.1,87.4,,,
CC[C@@H]1C(=O)OC[C@@H]1Cc1cncn1C [Pilocarpine] (400 nM),95.8,99.6,70.4,93.6,98.8,99.5,110,98.6,91,97.1,98.4,91.1,93.4,104,,97.7,101,95.3,96.7,96.1,96.6,88.3,85.9,97,101,89.7,98.3,94.1,86,94.5,63.4,102,98.7,97.8,73.4,70,106
Oc1ncnc2[nH]ncc12 [Allopurinol] (100 nM),101,91.8,,102,103,104,109,89.3,103,86.5,98.1,98.8,94.6,113,103,106,109,107,101,110,103,99.5,111,104,104,105,101,105,104,101,86.8,91.4,106,105,92.2,102,112
CC(=O)c1c(C)c2cnc(Nc3ccc(N4CCNCC4)cn3)nc2n(C2CCCC2)c1=O [Palbociclib] (100 nM),98.8,101,82,107,98.7,95.2,102,,101,103,99.6,110,103,55.5,104,98,79.7,85,95.7,105,86.4,96.4,94.4,97.3,85.8,86.3,103,95.9,85.7,85.7,72.8,97.9,96.5,103,,77,103
Cc1sc2c(c1C)C(c1ccc(Cl)cc1)=N[C@@H](CC(=O)OC(C)(C)C)c1nnc(C)n1-2 [(+)JQ1] (100 nM),101,103,,108,82.9,105,83.9,111,96.3,98.3,79,101,95.7,111,104,93.5,95,89.3,85,94.6,97.9,102,97.3,88.8,84.6,92.8,89.5,94.8,117,86.2,106,76,99.5,73.4,131,68.7,96.2
CC1=C2C[C@H]3[C@@H](CC=C4C[C@@H](O)CC[C@@]43C)[C@@H]2CC[C@]12O[C@@H]1C[C@H](C)CN[C@H]1[C@H]2C [Cyclopamine] (100 nM),102,107,,97.4,99.6,104,94.5,94.2,68.2,104,101,85.7,102,115,95.4,109,109,108,97.2,122,104,99.7,100,106,106,112,99.9,109,114,101,99.3,95,104,105,88.8,86,102
C[C@]12CC[C@@H]3c4ccc(OC(=O)N(CCCl)CCCl)cc4CC[C@H]3[C@@H]1CC[C@@H]2O [Estramustine] (100 nM),96.8,99.3,70.5,103,100,91.3,95.6,83.8,89.7,102,95.8,81,103,84.8,,93.3,91.4,95.2,95.2,83.1,101,98.4,103,94.6,88.2,85.3,102,95.4,76.8,98.1,86.7,104,100,93,97.9,83.2,
CC(=O)N(O)CCCCCNC(=O)CCC(=O)N(O)CCCCCNC(=O)CCC(=O)N(O)CCCCCN [Deferoxamine] (100 nM),98.1,102,,102,103,92.5,104,90.1,96.1,92.4,94.5,104,97.8,102,94.9,93.9,93.5,95.8,89.7,84.4,99.2,102,102,95,96.8,88.2,101,93.2,88.7,95,96.2,100,99.1,101,114,95.5,78.7
CC1(C)CNc2cc(NC(=O)c3cccnc3NCc3ccncc3)ccc21 [Motesanib] (100 nM),97.9,92.8,99.2,105,95.2,103,110,100,111,94.2,99,107,106,100,,102,93.8,91.8,96.8,99.8,99.9,96.9,114,89.5,92.5,92.1,99.5,101,86.2,101,107,99.7,95.4,96.3,93,91.1,101
